According to patent US10864168B2, “Bioactive delivery vehicles” (The Regents of the University of California, priority 2014, dated 2020):

Legend:
E. coli (BL21) = assay: Encapsulation efficiency into bacteria by vacuum infusion; type: physicochemical; conditions: vacuum infused, 35% ethanol
L. casei (S1) = assay: as above; type: physicochemical, Lactobacillus casei; conditions: vacuum infused, 35% ethanol
inactivated yeast = assay: Encapsulation of bioactives into inactivated yeast cells (conventional diffusion, vacuum infusion, pressure); type: physicochemical, Saccharomyces cerevisiae
Description: Prior to encapsulation of bioactives, selected strains of both yeast and algal cells are inactivated with a chemical treatment. Chemical inactivation of yeast or algal cells stops the metabolic processes while preserving the structure and chemical composition of the cells. […] The concentration of ethanol is selected based on the results of the previous study. Briefly, 1 gm of yeast or algal cells pellet is suspended in the 35% ethanolic solution of the selected bioactive compound. […] We have determined the % ethanol to achieve sufficient encapsulation of the selected encapsulated bioactive compounds using both the vacuum and high pressure assisted encapsulation process. Yeast or algal cell samples suspended in the ethanolic solution with the bioactive compound are sealed in boilable vacuum bags (Prime Source) at 99% vacuum (Ultravac 250, Koch Equipment LLC). […] The sealed samples are covered with aluminum foil to prevent any photo-degradation of the bioactives and incubated at room temperature (25° C.) for 10 minutes. Samples are emptied into 50 mL centrifuge tubes, centrifuged at 2200 rpm for 10 minutes to pellet the cells and the pelleted cells are washed twice with ethanolic solution (35%) and then five times with excess water to remove unencapsulated bioactives. […] Samples are emptied into 50 mL centrifuge tubes, centrifuged to pellet the cells (2200 rpm for 10 minutes) and the pelleted cells are washed twice with ethanolic solution (35%) and then five times with excess water to remove unencapsulated bioactives. Briefly, yeast or algal samples in a 35% ethanolic solution of the selected bioactive compound are covered with a single layer of aluminum foil to prevent photolysis. Samples are then placed into a rotary incubator at 50° C. and 200 rpm for 24 hours. After removal from the incubator, cells are removed by centrifugation at 2000 rpm for 10 minutes. The supernatant is decanted to isolate the pelleted cells and the pelleted cells are washed as described above to remove unencapsulated bioactives. Cells are sonicated to disrupt the cellular structure. A methanol extraction is utilized to extract the encapsulated bioactives from the disrupted yeast or algal cells. 0.05 g of cells (wet basis) with encapsulated bioactives are sonicated to disrupt cellular structure and subsequently incubated with 1 mL methanol. Samples are then briefly vortexed and centrifuged at 14,000 rpm for 10 minutes. The concentration of bioactive compound dissolved in the organic phase is measured using UV-vis spectrophotometer. […] Measuring loading of these bioactive compounds in various emulsions and nanoparticles has been described. The encapsulation efficiency is determined as follows: [formula] where CE is the mass of extracted bioactive from the cells after encapsulation and CT is the amount of bioactive initially added to the cells. We have developed an innovative bioencapsulation process that provides rapid and efficient infusion of bioactives in isolated cells and lipid bodies. In this process, yeast or algal cells incubated in a solution containing bioactive were subjected to a vacuum (97% vacuum) or mild-high hydrostatic pressure (35-100 MPa) for ˜5-10 minutes. […] The results of these measurements were compared with the conventional process used for encapsulation of bioactive compounds in yeast cells.

porcine skin = assay: Nile Red release from yeast encapsulation system into porcine skin; conditions: yeast microcapsules loaded with Nile Red; room temperature, 12 hours
Procedure: The Nile Red fluorescence signal contrast of porcine skin incubated with yeast encapsulation system and non-incubated porcine skin was evaluated. Yeast microcapsules were loaded with Nile Red dye and spread on porcine skin surface. After incubation at room temperature for 12 hours, fluorescence images were taken on the 20 μm-thick slice of tissue cross-section. The results are depicted in FIG. 17. […] This encapsulation system thus provides an option for convenient, pain-free and efficient compound delivery, which can be self-administered and operate as an alternative to oral dosing or injections.

[1] = Thermal stability of retinol, cell encapsulated versus emulsions; type: physicochemical; conditions: vacuum and/or HPP infusion methods, compared to emulsions
Procedure: Comparative percent recovery of retinol in emulsions and yeast after processing at 70° C. for 30 minutes. The retinol was extracted using methanol and the absorbance was measured at 325 nm.

[2] = Storage stability of encapsulated retinol at room temperature, exposure to atmospheric oxygen; type: physicochemical; conditions: cell-based encapsulants / lipid membrane microcapsules
Description: FIG. 10 illustrates stability of retinol encapsulated yeast cells as compared to retinol in emulsion and nanoparticles at room temperature. Stability of all-trans retinol encapsulated in casein stabilized emulsion, zein nanoparticles and yeast cells. The percent recovery of retinol in model systems after exposure to atmospheric oxygen is shown. Yeast cells provided the most stability to retinol, nearly 100% up to 5 days, while zein and casein systems have <10% after 4 days.
Retinol was selected as a model bioactive as it is highly susceptible to oxidative degradation at room temperature.

[3] = 100 mM PBS, pH = 6.5, Conventional Diffusion, saturated solution, 35% v/v ethanol
[4] = 100 mM PBS, pH = 6.5, HPP (200 MPa), saturated solution, 35% v/v ethanol
[5] = 100 mM PBS, pH = 6.5, Vacuum Infusion, saturated solution, 35% v/v ethanol
[6] = 2% Tween 20 in 100 mM Tris Buffer, pH = 8, Conventional Diffusion, saturated solution, 35% v/v ethanol
[7] = 2% Tween 20 in 100 mM Tris Buffer, pH = 8, HPP (200 MPa), saturated solution, 35% v/v ethanol
[8] = 2% Tween 20 in 100 mM Tris Buffer, pH = 8, Vacuum Infusion, saturated solution, 35% v/v ethanol
[9] = Conventional Diffusion, Single Loading
[10] = Vacuum, Dual Loading (curcumin and fisetin added together)
[11] = commercial yeast, 1 vacuum cycle, 35% ethanol
[12] = commercial yeast, 3 cycles of 99% vacuum, 5 min incubation between, no additional fisetin added
[13] = inactivated yeast, Conventional Methods, 24 hours, 50° C.
[14] = inactivated yeast, Mild Pressure (35 Mpa), 10 minutes
[15] = inactivated yeast, Vacuum (5 minutes)

O=c1c(O)c(-c2ccc(O)c(O)c2)oc2cc(O)ccc12 [Fisetin, fisetin]
Encapsulation Efficiency (E. coli (BL21)): 30.8%
Mass of Encapsulated Bioactive in Bacteria (E. coli (BL21)): 1.619 mg/g
Encapsulation Efficiency (L. casei (S1)): 43.2%
Mass of Encapsulated Bioactive in Bacteria (L. casei (S1)): 2.271 mg/g
Encapsulation Efficiency (inactivated yeast; [3]): 42.6%
Mass of Encapsulated Bioactive in Yeast (inactivated yeast; [3]): 1.11 mg/g
Encapsulation Efficiency (inactivated yeast; [4]): 99.3%
Mass of Encapsulated Bioactive in Yeast (inactivated yeast; [4]): 2.59 mg/g
Encapsulation Efficiency (inactivated yeast; [5]): 105.3%
Mass of Encapsulated Bioactive in Yeast (inactivated yeast; [5]): 2.75 mg/g
Encapsulation Efficiency (inactivated yeast; [6]): 58.7%
Mass of Encapsulated Bioactive in Yeast (inactivated yeast; [6]): 2.31 mg/g
Encapsulation Efficiency (inactivated yeast; [7]): 54.8%
Mass of Encapsulated Bioactive in Yeast (inactivated yeast; [7]): 2.16 mg/g
Encapsulation Efficiency (inactivated yeast; [8]): 80.7%
Mass of Encapsulated Bioactive in Yeast (inactivated yeast; [8]): 3.18 mg/g
Encapsulation Efficiency (inactivated yeast; [9]): 12.2%
Mass of Encapsulated Bioactive in Yeast (inactivated yeast; [9]): 0.061 mg/g
Encapsulation Efficiency (inactivated yeast; [10]): 96.0%
Mass of Encapsulated Bioactive in Yeast (inactivated yeast; [10]): 0.480 mg/g
Encapsulated Efficiency (inactivated yeast; [11]): 69.5%
Mass of Encapsulated Bioactive in Yeast (inactivated yeast; [11]): 3.65 mg/g
Encapsulated Efficiency (inactivated yeast; [12]): 76.4%
Mass of Encapsulated Bioactive in Yeast (inactivated yeast; [12]): 4.01 mg/g
encapsulation efficiency (percent ratio of encapsulated bioactive with respect to total bioactive in solution) (inactivated yeast; [13]): 11%
encapsulation efficiency (percent ratio of encapsulated bioactive with respect to total bioactive in solution) (inactivated yeast; [14]): 68%
encapsulation efficiency (percent ratio of encapsulated bioactive with respect to total bioactive in solution) (inactivated yeast; [15]): 64%
encapsulation efficiency relative to conventional diffusion techniques (inactivated yeast; inactivated yeast, vacuum or HPP): 1.4-2.3 ×

CCN(CC)c1ccc2nc3c4ccccc4c(=O)cc-3oc2c1 [Nile Red]
release and permeation into porcine skin (porcine skin): effectively released from yeast cells, further permeated crossing the stratum corneum and reached the dermis layer

CC1=C(/C=C/C(C)=C/C=C/C(C)=C/CO)C(C)(C)CCC1 [Retinol, retinol]
reduction of loss of retinol during thermal processing [1]: 25-30%
improvement of storage stability as compared to other encapsulation systems, including nanoparticles and emulsions [2]: at least 5 fold
encapsulation efficiency (percent ratio of encapsulated bioactive with respect to total bioactive in solution) (inactivated yeast; [13]): 15%
encapsulation efficiency (percent ratio of encapsulated bioactive with respect to total bioactive in solution) (inactivated yeast; [14]): 70%
encapsulation efficiency (percent ratio of encapsulated bioactive with respect to total bioactive in solution) (inactivated yeast; [15]): 45%
